Read-outs that look alike come from different tables or passages of the source.
Molecular target: p38α (Homo sapiens, UniProt Q16539)
Assay: p38α/MK2 cascade assay
Format: biochemical
Conditions: read-out: p38a/MK2 Cascade 40 min Pre-Incuabtion (% Inhibition): IC50
In short: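 In a cascade format, p38α was preincubated 40 min with inhibitor (1000–0.05 nM) before adding 1 nM nonactive MK2 (54-400), 5 μM MgATP and 0.5 μM FITC-Hsp27 peptide. Reaction ran 60 min in HEPES pH 7.5 with MgCl2, DTT, 2% DMSO, then EDTA-quenched. Peptide phosphorylation was measured by Caliper mobility shift to give IC50.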

[1] = Table 1, inhibitors preincubated with p38α for 40 minutes, phosphorylation of Hsp27 peptide by MK-2, Caliper LabChip 3000
[2] = Table 2, same p38α/MK2 cascade assay, 40 minutes preincubation

Chain of p38α (Q16539 whole entry): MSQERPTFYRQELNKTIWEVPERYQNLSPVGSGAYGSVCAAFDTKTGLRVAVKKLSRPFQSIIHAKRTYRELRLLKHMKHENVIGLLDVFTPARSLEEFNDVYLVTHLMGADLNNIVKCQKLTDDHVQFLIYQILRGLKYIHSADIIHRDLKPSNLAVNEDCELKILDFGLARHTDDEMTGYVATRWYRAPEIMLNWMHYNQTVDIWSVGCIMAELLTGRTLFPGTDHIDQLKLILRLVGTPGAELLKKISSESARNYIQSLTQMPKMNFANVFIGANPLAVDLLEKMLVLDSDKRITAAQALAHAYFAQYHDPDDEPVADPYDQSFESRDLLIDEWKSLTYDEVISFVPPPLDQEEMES

| IC50 [1] [nM] | IC50 [2] [nM] | Structure (SMILES) |
| --- | --- | --- |
| 2.45 |  | CNC(=O)c1ccc(C)c(-n2c(C)cc(OCc3ccc(F)cc3CNC(=O)Nc3cc(C(C)(C)C)nn3-c3cccc(Cl)c3)c(Cl)c2=O)c1 [Example 194, 3-{4-[(2-{[({[3-tert-butyl-1-(3-chlorophenyl)-1H-pyrazol-5-yl]amino}carbonyl)amino]methyl}-4-fluorobenzyl)oxy]-3-chloro-6-methyl-2-oxopyridin-1(2H)-yl}-N,4-dimethylbenzamide] |
|  | 2.8 | COC(=O)c1ccc(C)c(-n2c(C)cc(OCc3ccc(F)cc3CNC(=O)Nc3cc(C(C)(C)C)nn3-c3cccc(O)c3)c(Cl)c2=O)c1 [Example 203, methyl 3-{4-[(2-{[({[3-tert-butyl-1-(3-hydroxy-phenyl)-1H-pyrazol-5-yl]amino}-carbonyl)amino]-methyl}-4-fluorobenzyl)oxy]-3-chloro-6-methyl-2-oxopyridin-1(2H)-yl}-4-methylbenzoate] |
|  | 2.5 | COC(=O)c1ccc(C)c(-n2c(C)cc(OCc3ccccc3CNC(=O)Nc3cc(C(C)(C)C)nn3-c3ccc(C)cc3)c(Cl)c2=O)c1 [Example 205, methyl 3-{4-[(2-{[({[3-tert-butyl-1-(4-methylphenyl)-1H-pyrazol-5-yl]amino}carbonyl)-amino]methyl}benzyl)oxy]-3-chloro-6-methyl-2-oxopyridin-1(2H)-yl}-4-methylbenzoate] |
|  | 3.71 | CNC(=O)c1ccc(C)c(-n2c(C)cc(OCc3ccc(F)cc3CNC(=O)Nc3cc(C(C)(C)C)nn3-c3ccc(C)cc3)c(Cl)c2=O)c1 [Example 206, 3-{4-[(2-{[({[3-tert-butyl-1-(4-methylphenyl)-1H-pyrazol-5-yl]amino}carbonyl)amino]methyl}-4-fluorobenzyl)oxy]-3-chloro-6-methyl-2-oxopyridin-1(2H)-yl}-N,4-dimethylbenzamide] |
|  | 4.54 | Cc1ccc(-n2nc(C(C)(C)C)cc2NC(=O)NCc2cc(F)ccc2COc2cc(C)n(-c3cc(C(=O)O)ccc3C)c(=O)c2Br)cc1 [Example 207, 3-{3-bromo-4-[(2-{[({[3-tert-butyl-1-(4-methylphenyl)-1H-pyrazol-5-yl]amino}carbonyl)-amino]methyl}-4-fluorobenzyl)oxy]-6-methyl-2-oxopyridin-1(2H)-yl}-4-methylbenzoic acid] |
|  | 1.79 | CNC(=O)c1ccc(C)c(-n2c(C)cc(OCc3ccc(F)cc3CNC(=O)Nc3cc(C(C)(C)C)nn3-c3cccc(OC)c3)c(Cl)c2=O)c1 [Example 208, 3-{4-[(2-{[({[3-tert-butyl-1-(3-methoxyphenyl)-1H-pyrazol-5-yl]amino}carbonyl)amino]methyl}-4-fluorobenzyl)oxy]-3-chloro-6-methyl-2-oxopyridin-1(2H)-yl}-N,4-dimethyl-benzamide] |

Continued, compound first:

| Structure (SMILES) | IC50 [1] [nM] | IC50 [2] [nM] |
| --- | --- | --- |
| Cc1ccc(C(=O)NCCO)cc1-n1c(C)cc(OCc2ccc(F)cc2CNC(=O)Nc2cc(C(C)(C)C)nn2-c2cccc(Cl)c2)c(Cl)c1=O [Example 195, 3-{4-[(2-{[({[3-tert-butyl-1-(3-chlorophenyl)-1H-pyrazol-5-yl]amino}carbonyl)amino]methyl}-4-fluorobenzyl)oxy]-3-chloro-6-methyl-2-oxopyridin-1(2H)-yl}-N-(2-hydroxyethyl)-4-methylbenzamide] | 3.93 |  |
| COc1cccc(Cn2c(C)cc(OCc3ccc(F)cc3CNC(=O)Nc3cc(C(C)(C)C)nn3-c3cccc(OC)c3)c(Cl)c2=O)c1 [Example 201, 1-[3-tert-butyl-1-(3-methoxyphenyl)-1H-pyrazol-5-yl]-3-[2-({[3-chloro-1-(3-methoxybenzyl)-6-methyl-2-oxo-1,2-dihydropyridin-4-yl]oxy}methyl)-5-fluoro-benzyl]urea] |  | 4.5 |
| COc1ccc(Cn2c(C)cc(OCc3ccc(F)cc3CNC(=O)Nc3cc(C(C)(C)C)nn3-c3ccc(Cl)c(O)c3)c(Cl)c2=O)cc1 [Example 202, 1-[3-tert-butyl-1-(4-chloro-3-hydroxyphenyl)-1H-pyrazol-5-yl]-3-[2-({[3-chloro-1-(4-methoxy-benzyl)-6-methyl-2-oxo-1,2-dihydropyridin-4-yl]oxy}methyl)-5-fluorobenzyl]urea] |  | 3.1 |
| COC(=O)c1ccc(C)c(-n2c(SC)nc(OCc3ccccc3CNC(=O)Nc3cc(C(C)(C)C)nn3-c3ccc(C)cc3)cc2=O)c1 [Example 204, methyl 3-{4-[(2-{[({[3-tert-butyl-1-(4-methylphenyl)-1H-pyrazol-5-yl]amino}carbonyl)-amino]-methyl}-benzyl)oxy]-2-(methylthio)-6-oxopyrimidin-1(6H)-yl}-4-methylbenzoate] |  | 26.3 |
| COC(=O)c1ccc(C)c(-n2c(C)cc(OCc3ccccc3CNC(=O)Nc3cc(C(C)(C)C)nn3-c3cccc(OCCO)c3)c(Cl)c2=O)c1 [Example 209, methyl 3-[4-{[2-({[({3-tert-butyl-1-[3-(2-hydroxyethoxy)-phenyl]-1H-pyrazol-5-yl}amino)carbonyl]-amino}methyl)-benzyl]oxy}-3-chloro-6-methyl-2-oxopyridin-1(2H)-yl]-4-methylbenzoate] |  | 3.8 |
| Cc1ccc(C(=O)NCCO)cc1-n1c(C)cc(OCc2ccccc2CNC(=O)Nc2cc(C(C)(C)C)nn2-c2cccc(OCCO)c2)c(Cl)c1=O [Example 210, 3-[4-{[2-({[({3-tert-butyl-1-[3-(2-hydroxyethoxy)phenyl]-1H-pyrazol-5-yl}amino)carbonyl]amino}methyl)-benzyl]oxy}-3-chloro-6-methyl-2-oxopyridin-1(2H)-yl]-N-(2-hydroxyethyl)-4-methylbenzamide] |  | 2.9 |
| CNC(=O)c1ccc(C)c(-n2c(C)cc(OCc3ccccc3CNC(=O)Nc3cc(C(C)(C)C)nn3-c3cccc(OCCO)c3)c(Cl)c2=O)c1 [Example 211, 3-[4-{[2-({[({3-tert-butyl-1-[3-(2-hydroxyethoxy)phenyl]-1H-pyrazol-5-yl}amino)carbonyl]amino}methyl)benzyl]oxy}-3-chloro-6-methyl-2-oxopyridin-1(2H)-yl]-N,4-dimethylbenzamide] |  | 2.6 |
| Cc1ccc(C(=O)NCC(O)CO)cc1-n1c(C)cc(OCc2ccccc2CNC(=O)Nc2cc(C(C)(C)C)nn2-c2cccc(OCCO)c2)c(Cl)c1=O (stereo not shown) [Example 212, 3-[4-{[2-({[({3-tert-butyl-1-[3-(2-hydroxyethoxy)phenyl]-1H-pyrazol-5-yl}amino)carbonyl]amino}methyl)benzyl]oxy}-3-chloro-6-methyl-2-oxopyridin-1(2H)-yl]-N-(2,3-dihydroxypropyl)-4-methylbenzamide] |  | 1.8 |
| COC(=O)c1ccc(C)c(-n2c(C)cc(OCc3ccccc3CNC(=O)Nc3cc(C(C)(C)C)nn3-c3ccc(O)cc3)c(Cl)c2=O)c1 [Example 213, methyl 3-{4-[(2-{[({[3-tert-butyl-1-(4-hydroxyphenyl)-1H-pyrazol-5-yl]amino}carbonyl)amino]methyl}benzyl)oxy]-3-chloro-6-methyl-2-oxopyridin-1(2H)-yl}-4-methylbenzoate] |  | 4 |
| CNC(=O)c1ccc(C)c(-n2c(C)cc(OCc3ccccc3CNC(=O)Nc3cc(C(C)(C)C)nn3-c3ccc(O)cc3)c(Cl)c2=O)c1 [Example 214, 3-{4-[(2-{[({[3-tert-butyl-1-(4-hydroxyphenyl)-1H-pyrazol-5-yl]amino}carbonyl)amino]methyl}benzyl)oxy]-3-chloro-6-methyl-2-oxopyridin-1(2H)-yl}-N,4-dimethylbenzamide] |  | 2.1 |

— patent US20090270350A1, “Pyridinone Pyrazole Urea and Pyrimidinone Pyrazole Urea Derivatives” (PFIZER INC., priority 2006, published 2009)
